ChEMBL document CHEMBL1201862, “PubChem BioAssay data set” (2004)
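Results reflect a 48-hour exposure of cells in 96-well plates to compound at five concentrations. Here, GI50 denotes the concentration required for 50% inhibition of growth.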 Active and inactive are the calls of the source. Rule as the data show it: active = GI50 up to about 1.1 µM and inactive = higher.

Experiments:
Experiment in all cases: NCI anticancer screen, dose series, 48 h
HT-29 = tested on: HT-29
OVCAR-3 = tested on: OVCAR-3
Hs-578T = tested on: Hs-578T
ACHN = tested on: ACHN
IGROV-1 = tested on: IGROV-1
UACC-62 = tested on: UACC-62
SF-268 = tested on: SF-268
EKVX = tested on: EKVX
A549 = tested on: A549
OVCAR-5 = tested on: OVCAR-5
T47D = tested on: T47D
SK-MEL-5 = tested on: SK-MEL-5
NCI-H226 = tested on: NCI-H226
MOLT-4 = tested on: MOLT-4
SNB-19 = tested on: SNB-19
HOP-92 = tested on: HOP-92
SNB-75 = tested on: SNB-75
HCC 2998 = tested on: HCC 2998
CCRF-CEM = tested on: CCRF-CEM

Compound	GI50 (HT-29)	GI50 (OVCAR-3)	GI50 (Hs-578T)	GI50 (ACHN)	GI50 (IGROV-1)	GI50 (UACC-62)	GI50 (SF-268)	GI50 (EKVX)	GI50 (A549)	GI50 (OVCAR-5)	GI50 (T47D)	GI50 (SK-MEL-5)	GI50 (NCI-H226)	GI50 (MOLT-4)	GI50 (SNB-19)	GI50 (HOP-92)	GI50 (SNB-75)	GI50 (HCC 2998)	GI50 (CCRF-CEM)
CCC1c2[nH]c3ccccc3c2C[C@H]2C(=O)NC(CCC(=O)OC(C)(C)C)C(=O)N12 (stereo partly drawn)	34 µM (inactive)	22.4 µM (inactive)	32.7 µM (inactive)	47.4 µM (inactive)	53.8 µM (inactive)	66.5 µM (inactive)	37.4 µM (inactive)	42.6 µM (inactive)	43 µM (inactive)	62.1 µM (inactive)	40.6 µM (inactive)	39.4 µM (inactive)	> 100 µM (inactive)	35.3 µM (inactive)	73.5 µM (inactive)	30.6 µM (inactive)			
c1ccc2nn(C3CCCO3)nc2c1 (stereo not drawn)	> 100 µM (inactive)	> 100 µM (inactive)	> 100 µM (inactive)		> 100 µM (inactive)	> 100 µM (inactive)	> 100 µM (inactive)	> 100 µM (inactive)	> 100 µM (inactive)	> 100 µM (inactive)	> 100 µM (inactive)	> 100 µM (inactive)	> 100 µM (inactive)	> 100 µM (inactive)			> 100 µM (inactive)	> 100 µM (inactive)	> 100 µM (inactive)
COc1cc(/C=N\c2nc(-c3ccc(NS(=O)(=O)c4ccc(Cl)c(OC)c4)cc3)cs2)ccc1O	> 100 µM (inactive)	69.5 µM (inactive)	62.5 µM (inactive)	50.7 µM (inactive)	43.3 µM (inactive)	9.71 µM (inactive)	37.6 µM (inactive)	26.7 µM (inactive)	74.6 µM (inactive)	> 100 µM (inactive)	17.4 µM (inactive)	62.8 µM (inactive)	> 100 µM (inactive)	16.4 µM (inactive)	> 100 µM (inactive)	24.9 µM (inactive)	89.5 µM (inactive)		30.1 µM (inactive)
O=C1C(Br)=C(C2=CC(=P(c3ccccc3)(c3ccccc3)c3ccccc3)C=C2)C(=O)C(Br)=C1C1=CC(=P(c2ccccc2)(c2ccccc2)c2ccccc2)C=C1	> 100 µM (inactive)	40.2 µM (inactive)	> 100 µM (inactive)	> 100 µM (inactive)	40.3 µM (inactive)	> 100 µM (inactive)	> 100 µM (inactive)	19.9 µM (inactive)	> 100 µM (inactive)	17.9 µM (inactive)	> 100 µM (inactive)	> 100 µM (inactive)		> 100 µM (inactive)	> 100 µM (inactive)	28.2 µM (inactive)	> 100 µM (inactive)		> 100 µM (inactive)
CC(C)(NC(=O)OCc1ccccc1)C(=O)OC(=O)C(C)(C)NC(=O)OCc1ccccc1	> 100 µM (inactive)	> 100 µM (inactive)	> 100 µM (inactive)	> 100 µM (inactive)	> 100 µM (inactive)	18.3 µM (inactive)	0.653 µM (active)	> 100 µM (inactive)	> 100 µM (inactive)	> 100 µM (inactive)	> 100 µM (inactive)	> 100 µM (inactive)	> 100 µM (inactive)	> 100 µM (inactive)	> 100 µM (inactive)	> 100 µM (inactive)	> 100 µM (inactive)		> 100 µM (inactive)
O=C1CCC2CCC1C2 (stereo not drawn)	> 100 µM (inactive)	> 100 µM (inactive)	> 100 µM (inactive)	> 100 µM (inactive)		> 100 µM (inactive)	> 100 µM (inactive)		> 100 µM (inactive)	> 100 µM (inactive)	> 100 µM (inactive)	> 100 µM (inactive)	> 100 µM (inactive)	> 100 µM (inactive)	> 100 µM (inactive)		> 100 µM (inactive)	> 100 µM (inactive)	> 100 µM (inactive)
O=C(/C=C/c1cccs1)c1ccc(Cl)s1	> 10 µM (inactive)		46.7 µM (inactive)	> 100 µM (inactive)	> 10 µM (inactive)	45 µM (inactive)	38.7 µM (inactive)	> 100 µM (inactive)	42.9 µM (inactive)	54.3 µM (inactive)	35.1 µM (inactive)	50.7 µM (inactive)	28.7 µM (inactive)	23.8 µM (inactive)	15.7 µM (inactive)		56 µM (inactive)	18.7 µM (inactive)	25.1 µM (inactive)
O=C(CCC(=O)c1ccsc1)c1ccsc1		> 100 µM (inactive)	> 100 µM (inactive)	> 100 µM (inactive)	> 100 µM (inactive)	> 100 µM (inactive)	> 100 µM (inactive)		> 100 µM (inactive)	> 100 µM (inactive)	> 100 µM (inactive)	> 100 µM (inactive)	> 100 µM (inactive)	> 100 µM (inactive)	> 100 µM (inactive)	> 100 µM (inactive)	> 100 µM (inactive)	> 100 µM (inactive)	
O=C(c1ccncc1)C1C(=O)c2ccccc2C1C1(O)c2ccccc2CC1C(O)c1ccncc1 (stereo not drawn)	35.6 µM (inactive)		38.6 µM (inactive)	62.1 µM (inactive)	40.5 µM (inactive)	18.7 µM (inactive)	46.7 µM (inactive)	33 µM (inactive)	29.6 µM (inactive)	65.6 µM (inactive)	50.8 µM (inactive)	36 µM (inactive)	> 100 µM (inactive)	15.1 µM (inactive)	46.2 µM (inactive)	47.9 µM (inactive)	50 µM (inactive)	57.3 µM (inactive)	
Cc1ccc2c(c1)OC1Nc3ccccc3C1=C2O (stereo not drawn)	30 µM (inactive)	3.86 µM (inactive)	73.8 µM (inactive)	21.4 µM (inactive)	29.9 µM (inactive)	15.9 µM (inactive)	40 µM (inactive)	17.4 µM (inactive)	23.4 µM (inactive)	32.6 µM (inactive)	20.3 µM (inactive)	16.4 µM (inactive)	20.7 µM (inactive)	32.1 µM (inactive)	31.6 µM (inactive)	38.9 µM (inactive)	23.2 µM (inactive)	14.2 µM (inactive)	
O=C(COc1ccc(OCC(=O)N/N=C/c2ccc(-c3ccc(Cl)cc3Cl)o2)c(Cl)c1)N/N=C/c1ccc(-c2ccc(Cl)cc2Cl)o1	> 100 µM (inactive)	49.5 µM (inactive)	80.2 µM (inactive)	70.1 µM (inactive)	> 100 µM (inactive)	27.9 µM (inactive)	41.6 µM (inactive)	0.142 µM (active)	85.5 µM (inactive)	> 100 µM (inactive)	> 100 µM (inactive)	> 100 µM (inactive)	45.7 µM (inactive)	0.0298 µM (active)	> 100 µM (inactive)			29.8 µM (inactive)	14.8 µM (inactive)
Cc1cc2c(cc1N)C(C)C1(CCC(=O)N2Cc2ccccc2)OCCO1 (stereo not drawn)	> 100 µM (inactive)	> 100 µM (inactive)	> 100 µM (inactive)	> 100 µM (inactive)	> 100 µM (inactive)	> 100 µM (inactive)	83.4 µM (inactive)	> 100 µM (inactive)	> 100 µM (inactive)	> 100 µM (inactive)	> 100 µM (inactive)	> 100 µM (inactive)	> 100 µM (inactive)	> 100 µM (inactive)	> 100 µM (inactive)	> 100 µM (inactive)	32.3 µM (inactive)	> 100 µM (inactive)	
O=c1[nH]c(=O)n(C2CC(O)C(CO)O2)cc1/N=N/NCCCc1ccccc1 (stereo not drawn)	> 100 µM (inactive)	> 100 µM (inactive)	> 100 µM (inactive)	> 100 µM (inactive)	> 100 µM (inactive)	> 100 µM (inactive)	> 100 µM (inactive)	> 100 µM (inactive)	> 100 µM (inactive)	> 100 µM (inactive)	> 100 µM (inactive)	> 100 µM (inactive)	> 100 µM (inactive)	> 100 µM (inactive)		> 100 µM (inactive)		> 100 µM (inactive)	> 100 µM (inactive)
N#CCCN(CCC#N)c1ccc(/C=C2\N=C(c3ccccc3)N(c3ccc(Cl)cc3)C2=O)cc1	> 100 µM (inactive)	> 100 µM (inactive)	20.6 µM (inactive)	> 100 µM (inactive)	> 100 µM (inactive)	39.7 µM (inactive)	> 100 µM (inactive)	> 100 µM (inactive)	> 100 µM (inactive)	> 100 µM (inactive)	> 100 µM (inactive)	76.7 µM (inactive)	> 100 µM (inactive)	> 100 µM (inactive)	> 100 µM (inactive)	> 100 µM (inactive)			> 100 µM (inactive)
CC1(C)CC2=NC(SSC3=C(C#N)C(c4ccc(Br)cc4)C4=C(O)CC(C)(C)CC4=N3)=C(C#N)C(c3ccc(Br)cc3)C2=C(O)C1 (stereo not drawn)	> 100 µM (inactive)	> 100 µM (inactive)	> 100 µM (inactive)	> 100 µM (inactive)	> 100 µM (inactive)	> 100 µM (inactive)	> 100 µM (inactive)	> 100 µM (inactive)	> 100 µM (inactive)	> 100 µM (inactive)	> 100 µM (inactive)	> 100 µM (inactive)	> 100 µM (inactive)	59 µM (inactive)	> 100 µM (inactive)	70.6 µM (inactive)			> 100 µM (inactive)
CN1CCCCC1CCN1c2ccccc2Sc2ccc([S+](C)[O-])cc21 (stereo not drawn) [MESORIDAZINE]	> 100 µM (inactive)	> 100 µM (inactive)	> 100 µM (inactive)	> 100 µM (inactive)	> 100 µM (inactive)	> 100 µM (inactive)	> 100 µM (inactive)	> 100 µM (inactive)	> 100 µM (inactive)	> 100 µM (inactive)	> 100 µM (inactive)	> 100 µM (inactive)	> 100 µM (inactive)	> 100 µM (inactive)	> 100 µM (inactive)	> 100 µM (inactive)	> 100 µM (inactive)		> 100 µM (inactive)
